Series [1] is described as follows: Oral bioavailability in human. Type of series: ADME, organism-based. To be noted: in vivo.
The nature of series [2]: Oral bioavailability in rat at 5 mg/kg. Type of series: ADME, organism-based. The following applies: in vivo.
Series [3] is described as follows: Oral bioavailability in dog at 1 mg/kg. Type of series: ADME, organism-based, Canis lupus familiaris. To be noted: in vivo.
The nature of series [4]: Oral bioavailability in mouse administered as bid. The format is ADME, organism-based. The following applies: in vivo.
Series [5] can be described thus: Half life in human at 25 mg, po administered through fat rich diet. The format is ADME, organism-based. To be noted: in vivo.
A short description of series [6]: Oral bioavailability in cancer patient at 75 mg, qd administered 5 days for every 2 weeks. Type of series: ADME, organism-based. The following applies: human, in vivo.
Series [7] is described as follows: Apparent permeability across apical to basolateral side of human Caco2 cells at 5 uM after 120 mins by LC/MS/MS analysis. Type of series: ADME, cell-based. The following applies: Caco-2. (In general: Passage across Caco-2 layers is used to estimate intestinal permeability.)
Another series concerns Homo sapiens. Description: Oral bioavailability in human at 3 to 15 mg/day. Type of series: ADME, organism-based. To be noted: in vivo.

Consider `CO[C@H]1C[C@@H]2CC[C@@H](C)[C@@](O)(O2)C(=O)C(=O)N2CCCC[C@H]2C(=O)O[C@H]([C@H](C)C[C@@H]2CC[C@@H](OCCO)[C@H](OC)C2)CC(=O)[C@H](C)/C=C(\C)[C@@H](O)[C@@H](OC)C(=O)[C@H](C)C[C@H](C)/C=C/C=C/C=C/1C` [EVEROLIMUS], for which the bioavailability (as a rule, dose-corrected exposure relative to a reference, in per cent) in series [1] stood at 20%.

For `C=C[C@@H]1C[C@]1(NC(=O)[C@@H]1C[C@@H]2CN1C(=O)[C@H](C(C)(C)C)NC(=O)O[C@@H]1C[C@H]1CCCCCc1nc3ccc(OC)cc3nc1O2)C(=O)NS(=O)(=O)C1CC1` [GRAZOPREVIR ANHYDROUS], the figures for the bioavailability in series [2] and in series [3] were 1% and 13%, respectively.

For the molecule `COc1cc2ncnc3c2cc1OCCCCCN(C)Cc1ccc(Br)cc1N3` [JNJ-26483327], the bioavailability in series [4] amounted to 80%.

In the case of `CO[C@H]1/C=C/O[C@@]2(C)Oc3c(C)c(O)c4c(=O)c(c5oc6cc(N7CCN(CC(C)C)CC7)cc(O)c6nc-5c4c3C2=O)NC(=O)/C(C)=C\C=C\[C@H](C)[C@H](O)[C@@H](C)[C@@H](O)[C@@H](C)[C@H](OC(C)=O)[C@@H]1C` [RIFALAZIL], the half-life (as a rule, how long it takes for the measured level to halve) in series [5] is 100 h.

With `CO[C@H]1/C=C/O[C@@]2(C)Oc3c(C)c(O)c4c(O)c(c(/C=N/N5CCN(C)CC5)c(O)c4c3C2=O)NC(=O)/C(C)=C\C=C\[C@H](C)[C@H](O)[C@@H](C)[C@@H](O)[C@@H](C)[C@H](OC(C)=O)[C@@H]1C` [RIFAMPIN], in series [1], the bioavailability was 50%.

As for `CO[C@H]1/C=C/O[C@@]2(C)Oc3c(C)c(O)c4c(O)c(c(/C=N/N5CCN(C6CCCC6)CC5)c(O)c4c3C2=O)NC(=O)/C(C)=C\C=C\[C@H](C)[C@H](O)[C@@H](C)[C@@H](O)[C@@H](C)[C@H](OC(C)=O)[C@@H]1C` [RIFAPENTINE], the bioavailability in series [1] was 70%.

As to `C=CC[C@@H]1/C=C(\C)C[C@H](C)C[C@H](OC)[C@H]2O[C@@](O)(C(=O)C(=O)N3CCCC[C@H]3C(=O)O[C@H](/C(C)=C/[C@@H]3CC[C@@H](O)[C@H](OC)C3)[C@H](C)[C@@H](O)CC1=O)[C@H](C)C[C@@H]2OC` [TACROLIMUS ANHYDROUS], in series [1], the bioavailability stood at 15%.

For the molecule `CO[C@H]1C[C@@H]2CC[C@@H](C)[C@@](O)(O2)C(=O)C(=O)N2CCCC[C@H]2C(=O)O[C@H]([C@H](C)C[C@@H]2CC[C@@H](OC(=O)C(C)(CO)CO)[C@H](OC)C2)CC(=O)[C@H](C)/C=C(\C)[C@@H](O)[C@@H](OC)C(=O)[C@H](C)C[C@H](C)/C=C/C=C/C=C/1C` [TEMSIROLIMUS], the bioavailability in series [6] came to 1.5%.

Regarding `CN1C/C=C/CCOc2cccc(c2)-c2ccnc(n2)Nc2cccc(c2)C1` [ZOTIRACICLIB], the Papp A→B (in general, how fast a substance crosses the layer from the apical side) at 2 h, 5 µM in series [7] stood at 28 ×10⁻⁶ cm/s.

IVERMECTIN: the F in the series on Homo sapiens was 60%.

Source of the values: ChEMBL document CHEMBL3108664, “Macrocyclic drugs and clinical candidates: what can medicinal chemists learn from their properties?” (J Med Chem, 2014).
